This passage reports Kd results from patent publication US20260226048A1, “MULTI-CYCLIC IRAK AND FLT3 INHIBITING COMPOUNDS AND USES THEREOF” (CHILDREN'S HOSPITAL MEDICAL CENTER, priority 2023, published 2026).

One experiment addresses T1, IRAK4 (Homo sapiens, UniProt Q9NWZ3).
T1 sequence (Q9NWZ3 1-460): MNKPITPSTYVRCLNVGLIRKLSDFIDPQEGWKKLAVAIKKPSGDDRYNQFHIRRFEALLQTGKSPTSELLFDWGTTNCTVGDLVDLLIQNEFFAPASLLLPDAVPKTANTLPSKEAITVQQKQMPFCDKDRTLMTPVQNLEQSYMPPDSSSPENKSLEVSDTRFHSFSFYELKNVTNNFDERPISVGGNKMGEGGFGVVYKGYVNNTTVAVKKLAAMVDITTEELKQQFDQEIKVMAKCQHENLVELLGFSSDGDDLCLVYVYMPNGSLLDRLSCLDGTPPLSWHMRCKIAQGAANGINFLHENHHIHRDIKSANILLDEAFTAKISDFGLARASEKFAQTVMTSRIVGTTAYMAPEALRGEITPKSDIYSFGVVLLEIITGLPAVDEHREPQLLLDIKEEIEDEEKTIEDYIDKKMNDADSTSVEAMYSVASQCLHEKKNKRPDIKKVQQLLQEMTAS
In words: DiscoverX KINOMEscan competition binding assay, IRAK4. The arrangement: purchased Reaction Biology (RBC HotSpot). The note with it: 11-point 3-fold dilution. The text has this:
(§1) […]. […] As a result, the data report thermodynamic interaction affinities (Kd values), rather than IC50 values that are dependent on ATP concentrations. The assay uses a DNA-tagged version of the protein kinase, and an immobilized ligand bound to a solid support. Compounds that directly or indirectly prevent kinase binding to the immobilized ligand reduce the amount of kinase captured on the solid support, which is detected using an ultra-sensitive qPCR method. Affinity constants reported from the assay have been reported to be independent of the immobilized ligand used that is coupled to the solid support (See supplemental information in Fabian, M. A. et. al., (2005) Nat. Biotechnol. 23, 329-336; Wodicka, L. M. et. al., (2010) Chem. Biol. 17, 1241-1249.)
(§2) Kinase-tagged T7 phage strains were prepared in an E. coli host derived from the BL21 strain. E. coli were grown to log-phase and infected with T7 phage and incubated with shaking at 32° C. until lysis. The lysates were centrifuged and filtered to remove cell debris. The remaining kinases were produced in HEK-293 cells and subsequently tagged with DNA for qPCR detection. Streptavidin-coated magnetic beads were treated with biotinylated small molecule ligands for 30 minutes at room temperature to generate affinity resins for kinase assays. The liganded beads were blocked with excess biotin and washed with blocking buffer (SeaBlock (Pierce), 1% BSA, 0.05% Tween 20, 1 mM DTT) to remove unbound ligand and to reduce non-specific binding. […] Test compounds were prepared as 111× stocks in 100% DMSO. Kds were determined using an 11-point 3-fold compound dilution series with three DMSO control points. All compounds for Kd measurements are distributed by acoustic transfer (non-contact dispensing) in 100% DMSO. The compounds were then diluted directly into the assays such that the final concentration of DMSO was 0.9%. All reactions were performed in polypropylene 384-well plates. Each was a final volume of 0.02 mL. […] The kinase concentration in the eluates was measured by qPCR.
(§3) Binding constants (Kds) were calculated with a standard dose-response curve using the Hill equation. The Hill Slope was set to −1. Curves were fitted using a non-linear least square fit with the Levenberg-Marquardt algorithm.

For another experiment, the target named is T2, FLT3 D835V (Homo sapiens, UniProt P36888, D835V).
T2 construct: purchased DiscoverX (KINOMEscan); host or cells: E. coli BL21-derived host (T7 phage) or HEK-293
T2 sequence (P36888 27-993 D835V): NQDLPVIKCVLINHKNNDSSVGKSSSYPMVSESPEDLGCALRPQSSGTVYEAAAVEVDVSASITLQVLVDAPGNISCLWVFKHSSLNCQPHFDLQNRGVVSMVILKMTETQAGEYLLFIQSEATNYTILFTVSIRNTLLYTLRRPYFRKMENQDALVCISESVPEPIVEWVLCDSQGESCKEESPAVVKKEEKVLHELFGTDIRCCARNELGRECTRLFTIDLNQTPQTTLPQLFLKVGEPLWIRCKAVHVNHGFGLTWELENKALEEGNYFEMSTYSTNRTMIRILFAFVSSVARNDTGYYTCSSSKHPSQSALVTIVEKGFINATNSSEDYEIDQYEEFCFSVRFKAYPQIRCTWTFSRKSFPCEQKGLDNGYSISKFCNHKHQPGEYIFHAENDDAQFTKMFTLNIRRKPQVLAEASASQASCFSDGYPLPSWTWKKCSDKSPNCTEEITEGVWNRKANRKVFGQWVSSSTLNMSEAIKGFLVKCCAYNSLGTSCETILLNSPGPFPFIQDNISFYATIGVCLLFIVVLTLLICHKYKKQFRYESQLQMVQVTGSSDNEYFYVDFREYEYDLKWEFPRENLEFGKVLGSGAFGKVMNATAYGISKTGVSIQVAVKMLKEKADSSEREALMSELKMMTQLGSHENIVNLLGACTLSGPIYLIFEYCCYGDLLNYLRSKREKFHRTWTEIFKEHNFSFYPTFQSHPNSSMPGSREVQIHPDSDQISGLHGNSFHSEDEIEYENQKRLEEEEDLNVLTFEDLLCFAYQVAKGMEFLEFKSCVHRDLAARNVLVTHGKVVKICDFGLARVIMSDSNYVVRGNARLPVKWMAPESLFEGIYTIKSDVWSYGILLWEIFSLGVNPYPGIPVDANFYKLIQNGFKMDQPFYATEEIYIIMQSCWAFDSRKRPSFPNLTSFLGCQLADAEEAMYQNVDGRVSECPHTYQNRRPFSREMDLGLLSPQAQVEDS
The experiment in a line: DiscoverX KINOMEscan competition binding assay, FLT3 D835V. The note with it: 11-point 3-fold dilution.
Excerpt: as §1, §2, §3

On to `COc1cc2ncc(-c3nc(N[C@H]4CNCC[C@@H]4F)ncc3F)n2nc1C1CC1` [Compound 1a, 4-(6-cyclopropyl-7-methoxyimidazo[1,2-b]pyridazin-3-yl)-5-fluoro-N-((3S,4S)-4-fluoropiperidin-3-yl)pyrimidin-2-amine], for which the Kd at IRAK4 and on FLT3 D835V was less than 0.17 nM in each case.
Turning to `FC(F)COc1cc2ncc(-c3ccnc(N[C@H]4CNCC[C@@H]4F)n3)n2nc1C1CC1` [Compound 4a, 4-(6-cyclopropyl-7-(2,2-difluoroethoxy)imidazo[1,2-b]pyridazin-3-yl)-N-((3 S,4S)-4-fluoropiperidin-3-yl)pyrimidin-2-amine], the equilibrium dissociation constant (Kd) was 0.59 nM on IRAK4 and less than 0.17 nM on FLT3 D835V.
Take `COc1cc2ncc(-c3nc(N[C@H]4CNCC[C@@H]4F)ncc3F)n2nc1C(C)(C)O` [Compound 45a, 2-(3-(5-fluoro-2-(((3S,4S)-4-fluoropiperidin-3-yl)amino)pyrimidin-4-yl)-7-methoxyimidazo[1,2-b]pyridazin-6-yl)propan-2-ol]: the Kd at IRAK4 was found to be 0.58 nM; on FLT3 D835V it was 0.87 nM.
For `CC(C)(O)c1ccc2ncc(-c3nc(N[C@H]4CNCC[C@@H]4F)ncc3F)n2c1` [Compound 46a, 2-(3-(5-fluoro-2-(((3S,4S)-4-fluoropiperidin-3-yl)amino)pyrimidin-4-yl)imidazo[1,2-a]pyridin-6-yl)propan-2-ol] the same measures were less than 0.17 nM and 0.53 nM.
On to `COc1cc2ncc(-c3nc(N[C@H]4CNCC[C@@H]4F)ncc3F)n2nc1C1COC1` [Compound 92a, 5-fluoro-N-((3S,4S)-4-fluoropiperidin-3-yl)-4-(7-methoxy-6-(oxetan-3-yl)imidazo[1,2-b]pyridazin-3-yl)pyrimidin-2-amine], for which the Kd on IRAK4 and at FLT3 D835V was less than 0.17 nM throughout.
With `CC(C)(O)c1cn2c(-c3nc(N[C@H]4CNCC[C@@H]4F)ncc3F)cnc2cn1` [Compound 100a, 2-(3-(5-fluoro-2-(((3S,4S)-4-fluoropiperidin-3-yl)amino)pyrimidin-4-yl)imidazo[1,2-a]pyrazin-6-yl)propan-2-ol], the dissociation constant (Kd) turned out to be 1.5 nM on IRAK4 and 2.1 nM on FLT3 D835V.
Consider `COc1cc2ncc(-c3nc(N[C@H]4CNCC[C@@H]4F)ncc3F)n2nc1N1CCCS1(=O)=O` [Compound 112a, 2-(3-(5-fluoro-2-(((3S,4S)-4-fluoropiperidin-3-yl)amino)pyrimidin-4-yl)-7-methoxyimidazo[1,2-b]pyridazin-6-yl)isothiazolidine 1,1-dioxide], for which the Kd at IRAK4 was 0.61 nM; on FLT3 D835V, less than 0.17 nM.

What is called Kd is a measure of binding affinity in units of concentration. Read a high Kd as a looser complex.
